# Values of other authors in patent US12403129B2, “Isotope-enriched 3-amino-1-propanesulfonic acid derivatives for the treatment of cerebrovascular disease” (RISEN (SUZHOU) PHARMA TECH CO., LTD., priority 2021, dated 2025).
# “Also recorded” adds a separate entry of the source.
# Conditions: cited from earlier work
# [1] = 2-h time point, oral, 0.72 mmol/kg
smiles,measurement,setting,value
"[2H]C([2H])(N)CCS(=O)(=O)O [compound 1, 3-amino-3,3-dideuterium-1-propanesulfonic Acid]",concentration of metabolite (2-carboxy-1-ethanesulfonic acid) in plasma compared to 3APS (of natural abundance),[1],much lower
same,plasma drug concentration compared to 3APS (of natural abundance),[1],higher
same,plasma drug exposure compared to 3APS (of natural abundance),"mole-equivalent oral dose (0.72 mmol/kg), mouse plasma",improved plasma drug exposure significantly
same,drug metabolism / metabolic profile compared to 3APS,"mole-equivalent oral dose, mouse",delayed drug metabolism; also recorded: delayed metabolic profile
